# Laboratory results from the SangsterLogP compilation.
# Legend:
# [1] = method code SF-HPLC, from DOI: 10.1016/0378-5173(83)90028-5
# [2] = method code SF, from DOI: 10.1016/0005-2744(69)90103-x, PMID: 4387594
# [3] = method code SF-CR+AS, from Korenman, I. (1982). The influence of substituents on the partition of phenols between water and organic solvents. Russ. J. Phys. Chem., 56(3)458-460.
# [4] = method code SF-HPLC, from DOI: 10.1080/02772248909357333
# [5] = method code SF-AS, from DOI: 10.1016/0891-5849(94)00112-w, PMID: 7744299; conditions: pH 7.5
# [6] = method code SF-LC/MS, from DOI: 10.1002/rcm.3594, PMID: 18543375; conditions: pH 7.4
# [7] = method code SF-AS, from DOI: 10.1002/etc.5620181211
# [8] = not given; remark: listed apart in the source
# [9] = not given; remark: listed apart in the source
# [10] = method code SF-TN, from DOI: 10.1085/jgp.71.1.93, PMID: 621494
# [11] = from KURIHARA, Norio.; Fujita, Toshio. (1983). Composition of Partition Coefficients of Polychlorinated Hydrocarbons (Commemoration Issue Dedicated to Professor Yuzo Inouye on the Occasion of his …
# [12] = method code SF-AS, from DOI: 10.1016/0378-5173(80)90061-7
# [13] = method code SF-GLC, from DOI: 10.1021/es00131a005
# [14] = method code SF-RC, from DOI: 10.1002/jps.2600800111, PMID: 2013848
# [15] = method code SF-AS, from DOI: 10.1016/0003-9861(82)90097-2, PMID: 6284047; conditions: pH 7.4
# [16] = method code …, from Buur, A., & Bundgaard, H. (1984). Prodrugs of 5-fluorouracil. II. Hydrolysis kinetics, bioactivation, solubility and lipophilicity of N-alkoxycarbonyl derivatives of 5-fluorouracil. Arch. Pharm. …; conditions: pH 4.0
# [17] = method code SF, from DOI: 10.2307/3575246, PMID: 7367588
# [18] = method code SF-TN, from DOI: 10.2116/analsci.13.897; conditions: pH 2.0
# [19] = method code SF-HPLC, from DOI: 10.1021/je049947x
# [20] = method code SF-AS, from DOI: 10.1111/j.2042-7158.1981.tb11766.x; conditions: pH 1.0
# [21] = method code SF, from DOI: 10.1016/j.tca.2016.07.020; conditions: pH 7.4
# [22] = not given; remark: listed apart in the source
# [23] = method code SF-AS, from DOI: 10.1016/j.jhazmat.2007.11.074, PMID: 18180104
# [24] = not given; remark: listed apart in the source
# [25] = not given; remark: listed apart in the source
# [26] = method code SF-AS, from DOI: 10.1016/s0045-6535(00)00181-8, PMID: 11272912
smiles,measurement,setting,value
O=[N+]([O-])O[C@@H]1CO[C@H]2[C@@H]1OC[C@@H]2O,logP,[1],-0.15
Oc1c(Br)c(Br)c(Br)c(Br)c1Br,logP,,5.3
Nc1ccccc1F,logP,[2],1.26
Nc1cc([N+](=O)[O-])cc(Cl)c1O,logP,[3],1.53
COc1nn(CSP(=S)(OC)OC)c(=O)s1,logP,[4],2.22
O=Nc1ccccc1,logD,[5],1.86
c1ccc2[nH]cnc2c1,logD,[6],1.53
Cc1cccnc1N,logP,[7],0.01
CNC(=O)N(C)c1nnc(C(F)(F)F)s1,logP,[8],1.46
C1=CC=CCC=C1,logP,[9],2.63
CCCCC(O)C(=O)O (configuration not stated),logP,[10],0.81
ClC1C=CCC(Cl)C1Cl (configuration not stated),logP,[11],2.84
CCOC(=O)CCCO,logP,[12],0.43
Clc1ccc(Cl)c(Cl)c1Cl,logP,[13],4.6
Nc1ccc(S(=O)(=O)O)cc1,logP,[14],-2.16
CC1(C)CCC=[N+]1[O-],logD,[15],-1.03
CCOC(=O)n1c(=O)[nH]cc(F)c1=O,logD,[16],0.11
Cn1c(C(O)CO)cnc1[N+](=O)[O-] (configuration not stated),logP,[17],-0.89
O=C(O)C1CCCC1,logD,[18],1.52
CC(C)Nc1nc(N)nc(Cl)n1,logP,[19],1.49
O=C(O)c1ccc(O)cc1,logD,[20],1.56
NC(=S)c1ccncc1,logD,[21],0.61
Oc1ccc(O)c(Cl)c1,logP,[22],1.4
CNc1ccc([N+](=O)[O-])cc1,logP,[23],1.98
COC(=O)c1nc(Cl)c(Cl)c(N)c1Cl,logP,[24],2.3
Clc1cccc(C(Cl)(Cl)Cl)n1,logP,[25],3.41
O=Cc1cc(Br)ccc1O,logP,[26],2.5
